Tests used:
[1] = molecular target: T1, catalytic domain of MMP-3 enzyme (Homo sapiens, UniProt P08254); assay: Assay for determining MMP-3 inhibition (fluorescent substrate NFF-3); type: biochemical; conditions: read-out: Summary of MMP-3 Activity for Compounds (IC50 MMP-3, group)
T1 construct: stock solution of the catalytic domain of MMP-3 enzyme (Biomol, Cat. No. SE-109); purchased Biomol SE-109
Protocol: Assay for Determining MMP-3 Inhibition
The typical assay for MMP-3 activity is carried out in assay buffer comprised of 50 mM MES, pH 6.0, 10 mM CaCl2 and 0.05% Brij-35. Different concentrations of tested compounds are prepared in assay buffer in 50 μl aliquots. 10 μl of a 100 nM stock solution of the catalytic domain of MMP-3 enzyme (Biomol, Cat. No. SE-109) is added to the compound solution. The mixture of enzyme and compound in assay buffer is thoroughly mixed and incubated for 10 min at room temperature. Upon the completion of incubation, the assay is started by addition of 40 μl of a 12.5 μM stock solution of NFF-3 fluorescent substrate (Calbiochem, Cat. No. 480455). The time-dependent increase in fluorescence is measured at the 330 nm excitation and 390 nm emission by an automatic plate multireader. The IC50 values are calculated from the initial reaction rates.

[2] = molecular target: T2, catalytic domain of MMP-13 enzyme (Homo sapiens, UniProt P45452); assay: Assay for determining MMP-13 inhibition (fluorescent substrate); type: biochemical; conditions: read-out: Summary of MMP-13 Activity for Compounds (IC50 MMP-13, group)
T2 construct: stock solution of catalytic domain of MMP-13 enzyme (produced by Alantos or commercially available from Invitek); purchased Invitek (Berlin) 30100812
Protocol: Assay for Determining MMP-13 Inhibition
The typical assay for MMP-13 activity is carried out in assay buffer comprised of 50 mM Tris, pH 7.5, 150 mM NaCl, 5 mM CaCl2 and 0.05% Brij-35. Different concentrations of tested compounds are prepared in assay buffer in 50 μl aliquots. 10 μl of a 50 nM stock solution of catalytic domain of MMP-13 enzyme (produced by Alantos or commercially available from Invitek (Berlin), Cat. No. 30100812) is added to the compound solution. The mixture of enzyme and compound in assay buffer is thoroughly mixed and incubated for 10 min at room temperature. Upon the completion of incubation, the assay is started by addition of 40 μl of a 12.5 μM stock solution of MMP-13 fluorescent substrate (Calbiochem, Cat. No. 444235). The time-dependent increase in fluorescence is measured at the 320 nm excitation and 390 nm emission by automatic plate multireader. The IC50 values are calculated from the initial reaction rates.

T1 sequence (P08254 100-272 limits assumed): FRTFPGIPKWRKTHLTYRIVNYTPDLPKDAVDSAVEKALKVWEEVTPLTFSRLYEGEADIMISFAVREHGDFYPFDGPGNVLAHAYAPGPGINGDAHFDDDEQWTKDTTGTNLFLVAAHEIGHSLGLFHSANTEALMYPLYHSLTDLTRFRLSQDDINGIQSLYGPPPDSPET

Row | IC50 [1] | IC50 [2] | SMILES
1 | 101 to 20000 nM | 101 to 20000 nM | O=C1COc2ccc(CNC(=O)c3ncnc4c(NS(=O)(=O)c5ccc(Cl)cc5)c[nH]c34)cc2N1 [Example 28]
2 | 101 to 20000 nM | 101 to 20000 nM | O=C(NCc1ccc(F)cc1)c1ncnc2c(Br)c[nH]c12 [Example 5]
3 | 101 to 20000 nM | 101 to 20000 nM | O=C(NCc1ccc(F)c(Cl)c1)c1ncnc2c(Br)c[nH]c12 [Example 4]
4 | 101 to 20000 nM | 101 to 20000 nM | O=C1COc2ccc(CNC(=O)c3ncnc4c(NS(=O)(=O)c5cccs5)c[nH]c34)cc2N1 [Example 26]
5 | 101 to 20000 nM | 101 to 20000 nM | Nc1n[nH]c2c(C(=O)NCc3ccc(F)c(Cl)c3)ncnc12 [Example 22]
6 | 3 to 100 nM | 101 to 20000 nM | CCOC(=O)c1c[nH]c2c(C(=O)NCc3ccc4c(c3)NC(=O)CO4)ncnc12 [Example 8]
7 | 101 to 20000 nM | 101 to 20000 nM | O=C1COc2ccc(CNC(=O)c3ncnc4cc[nH]c34)cc2N1 [Example 13]
8 | 101 to 20000 nM | 101 to 20000 nM | O=C1COc2ccc(CNC(=O)c3ncnc4c(NS(=O)(=O)Cc5ccccc5)c[nH]c34)cc2N1 [Example 27]
9 | 101 to 20000 nM | 101 to 20000 nM | O=C(NCc1ccc(F)c(Cl)c1)c1ncnc2c([N+](=O)[O-])c[nH]c12 [Example 7]
10 | 101 to 20000 nM | 101 to 20000 nM | O=C(O)c1c[nH]c2c(C(=O)NCc3ccc(F)c(Cl)c3)ncnc12 [Example 20]
11 | 3 to 100 nM | 101 to 20000 nM | O=C1COc2ccc(CNC(=O)c3ncnc4c(C(=O)O)c[nH]c34)cc2N1 [Example 21]
12 | 101 to 20000 nM | 101 to 20000 nM | Nc1c[nH]c2c(C(=O)NCc3ccc4c(c3)NC(=O)CO4)ncnc12 [Example 15]
13 | 101 to 20000 nM | – | CC(C)(C)OC(=O)Nc1c[nH]c2c(C(=O)NCc3ccc4c(c3)NC(=O)CO4)ncnc12 [Example 1]
14 | 3 to 100 nM | 101 to 20000 nM | CS(=O)(=O)Nc1c[nH]c2c(C(=O)NCc3ccc4c(c3)NC(=O)CO4)ncnc12 [Example 25]
15 | 101 to 20000 nM | 101 to 20000 nM | O=C(O)c1c[nH]c2c(C(=O)NCc3ccc(F)cc3)ncnc12 [Example 19]
16 | 101 to 20000 nM | 3 to 100 nM | Nc1n[nH]c2c(C(=O)NCc3ccc4c(c3)NC(=O)CO4)ncnc12 [Example 23]
17 | 101 to 20000 nM | 101 to 20000 nM | O=C1COc2ccc(CNC(=O)c3ncnc4nc[nH]c34)cc2N1 [Example 9]
18 | 101 to 20000 nM | 101 to 20000 nM | O=C1COc2ccc(CNC(=O)c3ncnc4c([N+](=O)[O-])c[nH]c34)cc2N1 [Example 6]
